From article PMC10218254 (International Journal of Molecular Sciences, 2023)
Like-named read-outs stand apart in the source and are kept apart here.

How the values were obtained:
SARS-CoV-2 PL^pro [1] = target: T1, SARS-CoV-2 PL^pro (Severe acute respiratory syndrome coronavirus 2, UniProt P0DTD1); details: cited from earlier work
SARS-CoV-2 PL^pro [2] = target: T1, SARS-CoV-2 PL^pro; experiment: biochemical; details: for IC50: 60 min incubation
SARS-CoV-2 PL^pro [3] = target: T1, SARS-CoV-2 PL^pro; experiment: biochemical; details: Ub-AMC substrate, 60 min incubation
SARS-CoV PL^pro = SARS-CoV PL^pro (Severe acute respiratory syndrome coronavirus, UniProt P0C6X7); experiment: biochemical
MERS-CoV PL^pro = MERS-CoV PL^pro (Middle East respiratory syndrome-related coronavirus, UniProt K9N7C7); experiment: biochemical
SARS-CoV-2 PL^pro [4] = target: T1, SARS-CoV-2 PL^pro; experiment: biochemical; details: 50 nM protease; for Ki: read-out: Ki (binding affinity of initial reversible binding); for kinact: read-out: kinact (rate constant of covalent bond formation) (converted)
SARS-CoV-2 PL^pro [5] = target: T1, SARS-CoV-2 PL^pro; type: binding; details: 40 μM protease, 200 μM compound; for Tm of SARS-CoV-2 PLpro incubated with compound: apo protease 43.3 °C
SARS-CoV-2 PL^pro [6] = target: T1, SARS-CoV-2 PL^pro; experiment: cell-based; details: HEK293T cells; for EC50: 48 h
[7] = Cytotoxicity, cell counting kit-8 (CCK8) assay; details: human, CC50, HEK293T cells
HEK293T cells = experiment: Cytotoxicity, cell counting kit-8 (CCK8) assay; details: HEK293T cells, 24 h

Sequence of MERS-CoV PL^pro (K9N7C7 1552-1823 limits assumed): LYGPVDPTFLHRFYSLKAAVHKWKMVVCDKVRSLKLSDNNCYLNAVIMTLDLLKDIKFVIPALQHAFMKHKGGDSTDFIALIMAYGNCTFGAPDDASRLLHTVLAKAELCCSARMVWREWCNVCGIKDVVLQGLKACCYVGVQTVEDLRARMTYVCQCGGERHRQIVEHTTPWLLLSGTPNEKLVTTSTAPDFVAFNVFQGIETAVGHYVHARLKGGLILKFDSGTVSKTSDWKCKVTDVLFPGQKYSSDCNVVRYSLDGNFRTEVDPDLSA

Row | Compound | IC50 (SARS-CoV-2 PL^pro [2]; RLRGG-AMC substrate) | IC50 (SARS-CoV-2 PL^pro [3]) | kinact/KI (SARS-CoV-2 PL^pro [4]) | Ki (SARS-CoV-2 PL^pro [4]) | kinact (SARS-CoV-2 PL^pro [4]) | Tm of SARS-CoV-2 PLpro incubated with compound (SARS-CoV-2 PL^pro [5]) | EC50 (SARS-CoV-2 PL^pro [6]) | CC50 at 24 h [7] | CC50 (HEK293T cells) | other results
1 | COC(=O)/C=C/CNC(=O)CNC(=O)[C@H](CN)NC(=O)[C@H](CCc1nc2ccccc2s1)NC(C)=O [VIR250] |  |  |  |  |  |  |  |  |  | IC50 (SARS-CoV-2 PL^pro [1]; read-out: IC50): ~50 µM
2 | COC(=O)/C=C/CNC(=O)CNC(=O)[C@H](CN)NC(=O)[C@H](CCc1ccc(O)cc1)NC(C)=O [VIR251] |  |  |  |  |  |  |  |  |  | IC50 (SARS-CoV-2 PL^pro [1]): ~50 µM
3 | COC(=O)/C=C/CNC(=O)CNC(=O)CNC(=O)C1CCN(C(C)c2cccc3ccccc23)CC1 (stereo not drawn) [compound 2, Methyl (E)-4-(2-(2-(1-(1-(Naphthalen-1-yl)ethyl)piperidine-4-carboxamido)acetamido)acetamido)but-2-enoate] | 0.46 µM | 0.46 µM | 160 M⁻¹ s⁻¹ | 5.32 µM | 0.00085 s⁻¹ | 68.0 °C | 3.61 µM | ~180 µM | ~180 µM | change in inhibitory activities in the presence and absence of DTT (SARS-CoV-2 PL^pro [2]; 4 mM DTT, varied concentrations): no apparent change; improvement in potency (IC50) compared to VIR251 (SARS-CoV-2 PL^pro [2]; RLRGG-AMC substrate): about 100 fold; improvement in potency (IC50) compared to compound 1 (SARS-CoV-2 PL^pro [2]; RLRGG-AMC substrate): ~5 fold; increase in potency (IC50) compared to positive control GRL0617 (SARS-CoV-2 PL^pro [2]; RLRGG-AMC substrate): 2 fold; IC50 (SARS-CoV PL^pro): 0.39 µM; IC50 (MERS-CoV PL^pro): > 100 µM; inhibitory activity towards MERS-CoV PLpro (MERS-CoV PL^pro): basically ineffective; improvement in EC50 compared to GRL0617 (SARS-CoV-2 PL^pro [6]): ~ 4.4 fold
4 | COC(=O)/C=C/C(=O)NNC(=O)CCc1ccccc1C(=O)NC(C)c1cccc2ccccc12 (stereo not drawn) [compound 3, reference compound] |  |  |  |  |  |  |  | 58.3 ± 22.1 µM | 58.3 µM | 
5 | COC(=O)/C=C/C(=O)NNC(=O)CNC(=O)CNC(=O)C1CCN(C(C)c2cccc3ccccc23)CC1 (stereo not drawn) [compound 4, Methyl (E)-4-(2-((1-(1-(Naphthalen-1-yl)ethyl)piperidine-4-carbonyl)glycylglycyl)hydrazinyl)-4-oxobut-2-enoate] | 0.23 µM | 0.32 µM | 265 M⁻¹ s⁻¹ | 4.65 µM | 0.00123 s⁻¹ |  | > 200 µM | > 200 µM |  | inhibitory potency higher than compound 2 (SARS-CoV-2 PL^pro [2]; enzymatic inhibition assay): ~ 1 fold; Tm increase compared to apo protease (SARS-CoV-2 PL^pro [5]): 15.1 °C; inhibitory effect in cell-based protease assay (SARS-CoV-2 PL^pro [6]): hardly has an inhibitory effect
6 | GRL0617 [reference compound] |  |  |  |  |  | 50.4 °C |  |  | > 200 µM | 
